The text below walks through data of US8153795B2, “Substituted 1-oxa-3,8-diazaspiro[4.5]-decan-2-one-compounds and the use thereof for producing drugs” (Gruenenthal GmbH, priority 2005, dated 2012).

The structures appear in SMILES notation.

One assay has as its target T1, human μ opioid receptor (Homo sapiens, UniProt P35372).
T1 construct: purchased NEN, Zaventem, Belgium RB-HOM; host or cells: CHO-K1 cells (recombinant expression, membrane preparation)
Nature of the assay: affinity for the human μ opioid receptor, displacement of [3H]-naloxone, CHO-K1 membrane preparation. The conditions noted are these: percentage inhibition of specific binding of [3H]-naloxone. The protocol: Receptor affinity for the human p opioid receptor is determined in a homogeneous batch in microtitre plates. To this end, dilution series of the particular substituted 1-oxa-3,8-diazaspiro[4.5]-decan-2-one compounds to be tested were incubated at room temperature for 90 minutes in a total volume of 250 μl with a receptor membrane preparation (15-40 μg of protein per 250 μl of incubation batch) of CHO-K1 cells, which express the human p opioid receptor (RB-HOM receptor membrane preparation from NEN, Zaventem, Belgium) in the presence of 1 nmol/l of the radioactive ligand [^3H]-naloxone (NET719, from NEN, Zaventem, Belgium) and of 1 mg of WGA-SPA beads (wheat germ agglutinin SPA beads from Amersham/Pharmacia, Freiburg, Germany). The incubation buffer used is 50 mmol/l tris-HCl supplemented with 0.05 wt. % of sodium azide and 0.06 wt. % of bovine serum albumin. Nonspecific binding is determined by additionally adding 25 μmol/l of naloxone. Once the ninety minute incubation time had elapsed, the microtitre plates were centrifuged off for 20 minutes at 1000 g and the radioactivity measured in a β counter (Microbeta-Trilux, from PerkinElmer Wallac, Freiburg, Germany). The percentage displacement of the radioactive ligand from its binding to the human p opioid receptor is determined at a concentration of the substances to be tested of 1 μmol/l and stated as percentage inhibition of specific binding.

The next assay addresses T2, 5-HT transporter (Rattus norvegicus, UniProt P31652).
T2 construct: from tissue; host or cells: rat brain synaptosomes (P2 fraction) from medulla and pons
The assay can be described thus: 5-HT uptake inhibition in rat brain synaptosomes (medulla and pons), [3H]-5-HT. Format: biochemical. In a few lines: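 Freshly isolated P2 synaptosomes taken from rat hypothalamus (NA) or medulla/pons (5-HT) were incubated at room temperature under O2 with [3H]-NA for 7.5 min or [3H]-5-HT for 5 min. Uptake was measured as filter-retained radioactivity by scintillation counting.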

A further assay deals with T3, NA transporter (Rattus norvegicus, UniProt Q63380).
T3 construct: from tissue; host or cells: rat brain synaptosomes (P2 fraction) from hypothalamus
Nature of the assay: noradrenalin uptake inhibition in rat brain synaptosomes (hypothalamus), [3H]-NA. The class given is biochemical. The source says:
a) Method for Determining Noradrenalin and 5-HT Uptake Inhibition:
Synaptosomes from rat brain regions are freshly isolated for in vitro studies, as described in the publication “The isolation of nerve endings from brain” by E. G. Gray and V. P. Whittaker, J. Anatomy 96, pages 79-88, 1962. The corresponding literature description is hereby introduced as a reference and is deemed to be part of the disclosure.
The tissue (hypothalamus for the determination of noradrenalin uptake inhibition and medulla and pons for the determination of 5-HT uptake inhibition) is homogenised in ice-cooled 0.32 M sucrose (100 mg of tissue/1 mL) in a glass homogeniser with Teflon pestle using five complete up and down strokes at 840 revolutions/minute.
The homogenate is centrifuged at 4° C. for 10 minutes at 1000 g. After subsequent centrifugation at 17000 g for 55 minutes, the synaptosomes (P2 fraction) are obtained, which are resuspended in 0.32 M […] (0.5 mL/100 mg of original weight).
The particular uptake is measured in a 96-well microtitre plate. The volume is 250 μl and the incubation proceeds at room temperature (approx. 20-25° C.) under an O2 atmosphere.
The incubation time is 7.5 minutes for [^3H]-NA and 5 minutes for [^3H]-5-HT. The 96 samples are then filtered through a Unifilter GF/B® microtitre plate (Packard) and washed with 200 mL of incubated buffer using a “Brabdel MPXRI-96T Cell-Harvester”. The Unifilter GF/B plate is dried for 1 hour at 55° C. The plate is then sealed with a Back Seal® (Packard) and 35 μl of scintillation fluid are added per well (Ultima Gold®, Packard). After sealing with a top Seal® (Packard) and establishing an equilibrium (around 5 hours), radioactivity is determined in a “Trilux 1450 Microbeta” (Wallac).
The quantity of protein used in the above determination corresponds to the values known from the literature, as for example described in “Protein measurement with the folin phenol reagent”, Lowry et al., J. Biol. Chem., 193, 265-275, 1951.
A detailed description of the method may additionally be found in the literature, for example in M. Ch. Frink, H.-H. Hennies, W. Engelberger, M. Haurand and B. Wilffert (1996) Arzneim.-Forsch./Drug Res. 46 (III), 11, 1029-1036.

T1 sequence (P35372 whole entry): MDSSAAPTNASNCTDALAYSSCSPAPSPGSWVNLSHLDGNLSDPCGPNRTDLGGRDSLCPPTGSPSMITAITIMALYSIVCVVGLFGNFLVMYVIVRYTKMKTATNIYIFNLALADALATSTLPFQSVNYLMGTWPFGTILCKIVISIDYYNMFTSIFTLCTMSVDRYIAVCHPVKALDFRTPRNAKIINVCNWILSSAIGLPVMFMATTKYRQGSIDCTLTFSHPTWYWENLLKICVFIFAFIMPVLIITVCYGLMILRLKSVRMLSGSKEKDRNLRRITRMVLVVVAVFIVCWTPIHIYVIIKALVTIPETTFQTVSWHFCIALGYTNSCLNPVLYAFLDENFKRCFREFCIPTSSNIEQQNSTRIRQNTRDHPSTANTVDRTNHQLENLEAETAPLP
T3 sequence (Q63380 1-617): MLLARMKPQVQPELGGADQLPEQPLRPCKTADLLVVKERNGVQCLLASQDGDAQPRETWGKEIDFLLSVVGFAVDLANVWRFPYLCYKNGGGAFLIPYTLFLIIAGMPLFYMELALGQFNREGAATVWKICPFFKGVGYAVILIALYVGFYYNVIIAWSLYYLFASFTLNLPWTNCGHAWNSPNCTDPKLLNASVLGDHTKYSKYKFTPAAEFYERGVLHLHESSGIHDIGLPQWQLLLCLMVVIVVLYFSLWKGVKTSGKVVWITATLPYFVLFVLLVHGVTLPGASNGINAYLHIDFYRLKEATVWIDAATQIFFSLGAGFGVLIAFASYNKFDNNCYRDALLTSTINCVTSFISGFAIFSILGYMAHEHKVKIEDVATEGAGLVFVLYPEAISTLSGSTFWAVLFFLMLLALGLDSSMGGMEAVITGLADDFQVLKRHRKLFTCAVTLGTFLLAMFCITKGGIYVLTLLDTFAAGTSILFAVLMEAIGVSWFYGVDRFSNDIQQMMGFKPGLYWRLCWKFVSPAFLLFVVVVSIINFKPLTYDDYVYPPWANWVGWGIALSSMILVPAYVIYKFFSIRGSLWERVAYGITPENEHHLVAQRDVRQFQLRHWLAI
T2 sequence (P31652 whole entry): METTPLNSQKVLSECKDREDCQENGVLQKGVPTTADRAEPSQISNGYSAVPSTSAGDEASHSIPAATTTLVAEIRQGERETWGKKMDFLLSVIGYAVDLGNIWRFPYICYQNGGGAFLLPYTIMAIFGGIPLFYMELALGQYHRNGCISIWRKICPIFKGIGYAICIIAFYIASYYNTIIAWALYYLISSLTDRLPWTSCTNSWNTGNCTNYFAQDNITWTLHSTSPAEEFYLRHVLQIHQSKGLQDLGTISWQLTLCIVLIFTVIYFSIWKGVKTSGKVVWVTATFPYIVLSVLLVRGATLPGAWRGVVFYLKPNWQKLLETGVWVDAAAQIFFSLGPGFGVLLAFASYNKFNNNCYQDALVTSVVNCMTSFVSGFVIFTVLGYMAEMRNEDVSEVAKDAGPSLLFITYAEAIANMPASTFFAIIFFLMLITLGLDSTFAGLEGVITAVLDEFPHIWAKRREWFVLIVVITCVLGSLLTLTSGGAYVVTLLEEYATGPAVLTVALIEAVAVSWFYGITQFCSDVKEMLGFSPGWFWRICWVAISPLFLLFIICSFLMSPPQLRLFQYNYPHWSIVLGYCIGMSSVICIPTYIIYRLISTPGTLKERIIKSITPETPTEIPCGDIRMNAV

Usually inhibition stands for the relative decrease from the control value, in per cent. Read a low inhibition as little suppression. `O=C(O)COCC(=O)N1CCC2(CC1)CN(Cc1ccc(F)c(F)c1)C(=O)O2` [Example 64, {2-[3-(3,4-difluorobenzyl)-2-oxo-1-oxa-3,8-diazaspiro[4.5]dec-8-yl]-2-oxoethoxy}acetic acid] gave an inhibition at 1 µM at human μ opioid receptor of 48%.

With `CC(C)(CC(=O)O)C(=O)N1CCC2(CC1)CN(Cc1ccc(F)c(F)c1)C(=O)O2` [Example 65, 4-[3-(3,4-difluorobenzyl)-2-oxo-1-oxa-3,8-diazaspiro[4.5]dec-8-yl]-3,3-dimethyl-4-oxobutanoic acid], the inhibition at 10 µM against 5-HT transporter is 55%. The same compound came in with an inhibition at 1 µM on human μ opioid receptor of 56%. `CC(CC(=O)O)CC(=O)N1CCC2(CC1)CN(Cc1ccccc1F)C(=O)O2` (stereo not drawn) [Example 67, 5-[3-(2-fluorobenzyl)-2-oxo-1-oxa-3,8-diazaspiro[4.5]dec-8-yl]-3-methyl-5-oxopentanoic acid] registered an inhibition at 1 µM at human μ opioid receptor of 41%.

On human μ opioid receptor, `Cc1ccc(CN2CC3(CCN(C(=O)CC(C)(C)CC(=O)O)CC3)OC2=O)cc1` [Example 68, 3,3-dimethyl-5-[3-(4-methylbenzyl)-2-oxo-1-oxa-3,8-diazaspiro[4.5]dec-8-yl]-5-oxopentanoic acid] returned an inhibition at 1 µM of 46%. Compound `CC(CC(=O)O)CC(=O)N1CCC2(CC1)CN(Cc1ccc(F)c(F)c1)C(=O)O2` (stereo not drawn) [Example 69, 5-[3-(3,4-difluorobenzyl)-2-oxo-1-oxa-3,8-diazaspiro[4.5]dec-8-yl]-3-methyl-5-oxopentanoic acid] had an inhibition at 1 µM at human μ opioid receptor of 50%. The same measure, in the same setting: next, `O=C(O)COCC(=O)N1CCC2(CC1)CN(Cc1ccc(C(F)(F)F)cc1)C(=O)O2` [Example 70, {2-oxo-2-[2-oxo-3-(4-trifluoromethylbenzyl)-1-oxa-3,8-diazaspiro[4.5]dec-8-yl]ethoxy}acetic acid]: 42%. Turning to `CCOc1ccc(C(=O)N2CCC3(CC2)CN(Cc2ccc(C)cc2)C(=O)O3)cc1` [Example 92, 8-(4-ethoxybenzoyl)-3-(4-methylbenzyl)-1-oxa-3,8-diazaspiro[4.5]decan-2-one], the inhibition at 10 µM on 5-HT transporter is 67%; against NA transporter, 73%. The compound further showed an inhibition at 1 µM on human μ opioid receptor of 70%. In turn, `COC(=O)CC(=O)N1CCC2(CC1)CN(Cc1ccc(C#N)cc1)C(=O)O2` [Example 93, 3-[3-(4-cyanobenzyl)-2-oxo-1-oxa-3,8-diazaspiro[4.5]dec-8-yl]-3-oxopropionic acid methyl ester] showed an inhibition at 1 µM at human μ opioid receptor of 65%. On the same count and under the same terms, next, `N#Cc1ccccc1CN1CC2(CCN(C(=O)c3ccc(F)cc3F)CC2)OC1=O` [Example 94, 2-[8-(2,4-difluorobenzoyl)-2-oxo-1-oxa-3,8-diazaspiro[4.5]dec-3-ylmethyl]benzonitrile]: 62%; `Cc1cc(C)cc(CN2CC3(CCN(C(=O)c4cccc(N(C)C)c4)CC3)OC2=O)c1` [Example 95, 8-(3-dimethylaminobenzoyl)-3-(3,5-dimethylbenzyl)-1-oxa-3,8-diazaspiro[4.5]decan-2-one]: 75%; `CC(=O)Nc1ccc(C(=O)N2CCC3(CC2)CN(Cc2ccc(F)c(F)c2)C(=O)O3)cc1` [Example 96, N-{4-[3-(3,4-difluorobenzyl)-2-oxo-1-oxa-3,8-diazaspiro[4.5]decane-8-carbonyl]phenyl}acetamide]: 78%. In turn, `O=C1OC2(CCN(C(=O)c3ccc(Br)cc3)CC2)CN1Cc1ccc(F)cc1` [Example 97, 8-(4-bromobenzoyl)-3-(4-fluorobenzyl)-1-oxa-3,8-diazaspiro[4.5]decan-2-one] had an inhibition at 1 µM at human μ opioid receptor of 67%. The same measure, in the same setting: next, `N#Cc1ccc(CN2CC3(CCN(C(=O)C45CC6CC(CC(C6)C4)C5)CC3)OC2=O)cc1` [Example 98, 4-[8-(adamantane-1-carbonyl)-2-oxo-1-oxa-3,8-diazaspiro[4.5]dec-3-ylmethyl]benzonitrile]: 75%; `O=C1OC2(CCN(C(=O)c3ccc(Cl)cc3)CC2)CN1Cc1cccc(Br)c1` [Example 100, 3-(3-bromobenzyl)-8-(4-chlorobenzoyl)-1-oxa-3,8-diazaspiro[4.5]decan-2-one]: 64%. Turning to `O=C1OC2(CCN(C(=O)c3ccc([N+](=O)[O-])cc3)CC2)CN1Cc1cccc(Br)c1` [Example 109, 3-(3-bromobenzyl)-8-(4-nitrobenzoyl)-1-oxa-3,8-diazaspiro[4.5]decan-2-one], the inhibition at 10 µM against 5-HT transporter was 81%; at NA transporter, 78%. For `COc1cc(OC)cc(C(=O)N2CCC3(CC2)CN(Cc2cccc(Br)c2)C(=O)O3)c1` [Example 137, 3-(3-bromobenzyl)-8-(3,5-dimethoxybenzoyl)-1-oxa-3,8-diazaspiro[4.5]decan-2-one] the same measures were 74% and 84%.

For `CCCc1ccc(C(=O)N2CCC3(CC2)CN(Cc2cccc(Br)c2)C(=O)O3)cc1` [Example 148, 3-(3-bromobenzyl)-8-(4-propylbenzoyl)-1-oxa-3,8-diazaspiro[4.5]decan-2-one], the inhibition at 10 µM at 5-HT transporter was 73%; against NA transporter, 75%. Compound `O=C1OC2(CCN(S(=O)(=O)Cc3cccc(Cl)c3)CC2)CN1Cc1ccccc1-c1ccccc1` [Example 149, 3-biphenyl-2-ylmethyl-8-(3-chlorobenzylsulfonyl)-1-oxa-3,8-diazaspiro[4.5]decan-2-one] came in with an inhibition at 1 µM at human μ opioid receptor of 61%.
